Results from ChEMBL document CHEMBL3885881, “DrugMatrix”.

Species on record: Rattus norvegicus
Assay: DrugMatrix - Regimen: Daily Repeat
Format: toxicity, organism-based, Sprague-Dawley
Parameters: regimen Daily Repeat, gender Male, age 6-8 weeks
Conditions: in vivo, iv, 72 h, time 3 day, vehicle 100 % SALINE; for ABSOLUTE BASOPHIL / ABSOLUTE EOSINOPHIL / ABSOLUTE LYMPHOCYTE / ABSOLUTE MONOCYTE / ABSOLUTE SEGMENTED NEUTROPHIL / BASOPHIL / EOSINOPHIL / ERYTHROCYTE COUNT / HEMATOCRIT / HEMOGLOBIN / LEUKOCYTE COUNT / LYMPHOCYTE / MEAN CORPUSCULAR HEMOGLOBIN / MEAN CORPUSCULAR HEMOGLOBIN CONCENTRATION / MEAN CORPUSCULAR VOLUME / MONOCYTE / NEUTROPHIL / NUCLEATED RED BLOOD CELLS / PLATELET COUNT: tissue Blood; for ALANINE AMINOTRANSFERASE / ALKALINE PHOSPHATASE / ASPARTATE AMINOTRANSFERASE / BLOOD UREA NITROGEN / CARBON DIOXIDE / CHLORIDE / CHOLESTEROL / CREATINE PHOSPHOKINASE / CREATININE / GLUCOSE / LACTATE DEHYDROGENASE / LIPASE / PHOSPHORUS / POTASSIUM / SODIUM / TOTAL BILIRUBIN / TOTAL PROTEIN / URIC ACID: tissue Plasma

For COc1cc2c(c(OC)c1OC)-c1ccc(OC)c(=O)cc1[C@@H](NC(C)=O)CC2 [COLCHICINE], the “ABSOLUTE BASOPHIL” value (0.06 mg/kg, dose level Low) was 0 CELLS/uL, the “ABSOLUTE EOSINOPHIL” value (0.06 mg/kg, dose level Low) was 27.33 CELLS/uL and the “ABSOLUTE LYMPHOCYTE” value (0.06 mg/kg, dose level Low) was 6156.67 CELLS/uL. The “ABSOLUTE MONOCYTE” value (0.06 mg/kg, dose level Low) was 0 CELLS/uL, the “ABSOLUTE SEGMENTED NEUTROPHIL” value (0.06 mg/kg, dose level Low) was 749.33 CELLS/uL and the BASOPHIL (0.06 mg/kg, dose level Low) was 0%. For the same compound, the EOSINOPHIL (0.06 mg/kg, dose level Low) was 0.33%, the “ERYTHROCYTE COUNT” value (0.06 mg/kg, dose level Low) was 5.17 x10E6/uL and the HEMATOCRIT (0.06 mg/kg, dose level Low) was 32.07%. The HEMOGLOBIN (0.06 mg/kg, dose level Low) was 12.27 G/DL, the “LEUKOCYTE COUNT” value (0.06 mg/kg, dose level Low) was 6.93 x10E3/uL and the LYMPHOCYTE (0.06 mg/kg, dose level Low) was 89%. The “MEAN CORPUSCULAR HEMOGLOBIN” value (0.06 mg/kg, dose level Low) was 23.77 pg, the “MEAN CORPUSCULAR HEMOGLOBIN CONCENTRATION” value (0.06 mg/kg, dose level Low) was 38.27 G/DL and the “MEAN CORPUSCULAR VOLUME” value (0.06 mg/kg, dose level Low) was 62.1 fL. The MONOCYTE (0.06 mg/kg, dose level Low) was 0%, the NEUTROPHIL (0.06 mg/kg, dose level Low) was 10.67% and the “NUCLEATED RED BLOOD CELLS” value (0.06 mg/kg, dose level Low) was 0 /100WBC. The “PLATELET COUNT” value (0.06 mg/kg, dose level Low) was 1043 x10E3/uL, the “ALANINE AMINOTRANSFERASE” value (0.06 mg/kg, dose level Low) was 47.67 u/L and the “ALKALINE PHOSPHATASE” value (0.06 mg/kg, dose level Low) was 415.67 u/L. The “ASPARTATE AMINOTRANSFERASE” value (0.06 mg/kg, dose level Low) was 76.33 u/L, the “BLOOD UREA NITROGEN” value (0.06 mg/kg, dose level Low) was 14 mg/dL and the “CARBON DIOXIDE” value (0.06 mg/kg, dose level Low) was 31.67 mmol/L. The CHLORIDE (0.06 mg/kg, dose level Low) was 96.33 MEQ/L, the CHOLESTEROL (0.06 mg/kg, dose level Low) was 74 mg/dL and the “CREATINE PHOSPHOKINASE” value (0.06 mg/kg, dose level Low) was 201 u/L. For the same compound, the CREATININE (0.06 mg/kg, dose level Low) was 0.18 mg/dL, the GLUCOSE (0.06 mg/kg, dose level Low) was 136.67 mg/dL and the “LACTATE DEHYDROGENASE” value (0.06 mg/kg, dose level Low) was 97 u/L. For the same compound, the LIPASE (0.06 mg/kg, dose level Low) was 8 u/L, the PHOSPHORUS (0.06 mg/kg, dose level Low) was 13.4 mg/dL and the POTASSIUM (0.06 mg/kg, dose level Low) was 6.43 MEQ/L. The SODIUM (0.06 mg/kg, dose level Low) was 144.43 MEQ/L, the “TOTAL BILIRUBIN” value (0.06 mg/kg, dose level Low) was 0.17 mg/dL and the “TOTAL PROTEIN” value (0.06 mg/kg, dose level Low) was 6.37 G/DL. The “URIC ACID” value (0.06 mg/kg, dose level Low) was 1.13 mg/dL, the “ABSOLUTE BASOPHIL” value (0.6 mg/kg, dose level High) was 0 CELLS/uL and the “ABSOLUTE EOSINOPHIL” value (0.6 mg/kg, dose level High) was 18.33 CELLS/uL. The “ABSOLUTE LYMPHOCYTE” value (0.6 mg/kg, dose level High) was 4412.33 CELLS/uL, the “ABSOLUTE MONOCYTE” value (0.6 mg/kg, dose level High) was 18.33 CELLS/uL and the “ABSOLUTE SEGMENTED NEUTROPHIL” value (0.6 mg/kg, dose level High) was 317.67 CELLS/uL. The BASOPHIL (0.6 mg/kg, dose level High) was 0%, the EOSINOPHIL (0.6 mg/kg, dose level High) was 0.33% and the “ERYTHROCYTE COUNT” value (0.6 mg/kg, dose level High) was 4.91 x10E6/uL. The HEMATOCRIT (0.6 mg/kg, dose level High) was 30.9%, the HEMOGLOBIN (0.6 mg/kg, dose level High) was 11.7 G/DL and the “LEUKOCYTE COUNT” value (0.6 mg/kg, dose level High) was 4.77 x10E3/uL. The LYMPHOCYTE (0.6 mg/kg, dose level High) was 93%, the “MEAN CORPUSCULAR HEMOGLOBIN” value (0.6 mg/kg, dose level High) was 23.87 pg and the “MEAN CORPUSCULAR HEMOGLOBIN CONCENTRATION” value (0.6 mg/kg, dose level High) was 37.87 G/DL. For the same compound, the “MEAN CORPUSCULAR VOLUME” value (0.6 mg/kg, dose level High) was 62.97 fL, the MONOCYTE (0.6 mg/kg, dose level High) was 0.33% and the NEUTROPHIL (0.6 mg/kg, dose level High) was 6.33%. For the same compound, the “NUCLEATED RED BLOOD CELLS” value (0.6 mg/kg, dose level High) was 0.33 /100WBC, the “PLATELET COUNT” value (0.6 mg/kg, dose level High) was 987.33 x10E3/uL and the “ALANINE AMINOTRANSFERASE” value (0.6 mg/kg, dose level High) was 103.67 u/L. The “ALKALINE PHOSPHATASE” value (0.6 mg/kg, dose level High) was 371.33 u/L, the “ASPARTATE AMINOTRANSFERASE” value (0.6 mg/kg, dose level High) was 526.67 u/L and the “BLOOD UREA NITROGEN” value (0.6 mg/kg, dose level High) was 14.33 mg/dL. The “CARBON DIOXIDE” value (0.6 mg/kg, dose level High) was 28.67 mmol/L, the CHLORIDE (0.6 mg/kg, dose level High) was 97 MEQ/L and the CHOLESTEROL (0.6 mg/kg, dose level High) was 115.67 mg/dL. The “CREATINE PHOSPHOKINASE” value (0.6 mg/kg, dose level High) was 183.67 u/L, the CREATININE (0.6 mg/kg, dose level High) was 0.17 mg/dL and the GLUCOSE (0.6 mg/kg, dose level High) was 165.67 mg/dL. For the same compound, the “LACTATE DEHYDROGENASE” value (0.6 mg/kg, dose level High) was 137.33 u/L, the LIPASE (0.6 mg/kg, dose level High) was 9 u/L and the PHOSPHORUS (0.6 mg/kg, dose level High) was 11.9 mg/dL. For the same compound, the POTASSIUM (0.6 mg/kg, dose level High) was 6.74 MEQ/L, the SODIUM (0.6 mg/kg, dose level High) was 144.13 MEQ/L and the “TOTAL BILIRUBIN” value (0.6 mg/kg, dose level High) was 0.13 mg/dL. For the same compound, the “TOTAL PROTEIN” value (0.6 mg/kg, dose level High) was 6.3 G/DL and the “URIC ACID” value (0.6 mg/kg, dose level High) was 1.67 mg/dL.
